Experimental data taken from PubChem BioAssay (NCI).
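48-hour exposure; five concentrations; linearly interpolated endpoints. Here, GI50 denotes the concentration required for 50% inhibition of growth. TGI: concentration producing complete growth inhibition.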

How the values were obtained:
Assay in all cases: inhibition of tumour cell growth, NCI panel, 48 h
[1] = system: 786-0 renal
[2] = system: A498 renal
[3] = system: A549 NSCLC
[4] = system: ACHN renal
[5] = system: BT-549 breast
[6] = system: CAKI-1 renal
[7] = system: CCRF-CEM leukemia
[8] = system: COLO 205 colon
[9] = system: DU-145 prostate
[10] = system: EKVX NSCLC
[11] = system: HCC-2998 colon
[12] = system: HCT-116 colon
[13] = system: HCT-15 colon
[14] = system: HL-60(TB) leukemia
[15] = system: HOP-62 NSCLC
[16] = system: HOP-92 NSCLC
[17] = system: HS 578T breast
[18] = system: HT29 colon
[19] = system: IGROV1 ovarian
[20] = system: K-562 leukemia
[21] = system: KM12 colon
[22] = system: LOX IMVI melanoma
[23] = system: M14 melanoma
[24] = system: MALME-3M melanoma
[25] = system: MCF7 breast
[26] = system: MDA-MB-231 breast
[27] = system: MDA-MB-435
[28] = system: MOLT-4 leukemia
[29] = system: NCI-H226 lung
[30] = system: NCI-H23 lung
[31] = system: NCI-H460 lung
[32] = system: NCI-H522 lung
[33] = system: NCI/ADR-RES ovarian
[34] = system: OVCAR-3 ovarian
[35] = system: OVCAR-4 ovarian
[36] = system: OVCAR-5 ovarian
[37] = system: OVCAR-8 ovarian
[38] = system: PC-3 prostate
[39] = system: RPMI-8226 leukemia
[40] = system: RXF 393 renal
[41] = system: SF-268 CNS
[42] = system: SF-295 CNS
[43] = system: SF-539 CNS
[44] = system: SK-MEL-2 melanoma
[45] = system: SK-MEL-28 melanoma
[46] = system: SK-MEL-5 melanoma
[47] = system: SK-OV-3 ovarian
[48] = system: SN12C renal
[49] = system: SNB-19 CNS
[50] = system: SNB-75 CNS
[51] = system: SR leukemia
[52] = system: SW-620 colon
[53] = system: T-47D breast
[54] = system: TK-10 renal
[55] = system: U251 CNS
[56] = system: UACC-257 melanoma
[57] = system: UACC-62 melanoma
[58] = system: UO-31 renal

O=C(c1cccs1)c1c(C(F)(F)F)n([O-])c2ccc(Cl)cc2[n+]1=O
GI50 [1]: 36.2 nM
TGI [1]: 69 nM
GI50 [2]: 10800 nM
TGI [2]: 18500 nM
GI50 [3]: 168 nM
TGI [3]: 730 nM
GI50 [4]: 16.7 nM
TGI [4]: 44.2 nM
GI50 [5]: 289 nM
TGI [5]: 655 nM
GI50 [6]: 128 nM
TGI [6]: 671 nM
GI50 [7]: 93.3 nM
GI50 [8]: 569 nM
TGI [8]: 10200 nM
GI50 [9]: 311 nM
TGI [9]: 547 nM
GI50 [10]: 185 nM
TGI [10]: 523 nM
GI50 [11]: 735 nM
TGI [11]: 1430 nM
GI50 [12]: 46.5 nM
TGI [12]: 723 nM
GI50 [13]: 109 nM
TGI [13]: 359 nM
GI50 [14]: 152 nM
TGI [14]: 1510 nM
GI50 [15]: 64.9 nM
TGI [15]: 146 nM
GI50 [16]: 866 nM
TGI [16]: 5680 nM
GI50 [17]: 11400 nM
TGI [17]: > 34000 nM
GI50 [18]: 1290 nM
TGI [18]: > 50000 nM
GI50 [19]: 56.3 nM
TGI [19]: 1650 nM
GI50 [20]: 115 nM
TGI [20]: 2620 nM
GI50 [21]: 111 nM
TGI [21]: 302 nM
GI50 [22]: 65.3 nM
TGI [22]: 131 nM
GI50 [23]: 322 nM
TGI [23]: 1090 nM
GI50 [24]: 6360 nM
TGI [24]: 13900 nM
GI50 [25]: 94.2 nM
TGI [25]: 2480 nM
GI50 [26]: 124 nM
TGI [26]: 431 nM
GI50 [27]: 289 nM
TGI [27]: 2020 nM
GI50 [28]: 28.9 nM
TGI [28]: 340 nM
GI50 [29]: 398 nM
TGI [29]: 2360 nM
GI50 [30]: 454 nM
TGI [30]: 2260 nM
GI50 [31]: 359 nM
TGI [31]: > 24900 nM
GI50 [32]: 406 nM
TGI [32]: 6070 nM
GI50 [33]: 1750 nM
TGI [33]: 6240 nM
GI50 [34]: 461 nM
TGI [34]: 2850 nM
GI50 [35]: 2610 nM
TGI [35]: > 50000 nM
GI50 [36]: 2020 nM
TGI [36]: 9680 nM
GI50 [37]: 1260 nM
TGI [37]: > 20900 nM
GI50 [38]: 97.2 nM
TGI [38]: 339 nM
GI50 [39]: 5 nM
TGI [39]: 16.3 nM
GI50 [40]: 2090 nM
TGI [40]: 11700 nM
GI50 [41]: 434 nM
TGI [41]: 1360 nM
GI50 [42]: 149 nM
TGI [42]: 703 nM
GI50 [43]: 282 nM
TGI [43]: 568 nM
GI50 [44]: 912 nM
TGI [44]: > 20800 nM
GI50 [45]: 9460 nM
TGI [45]: > 50000 nM
GI50 [46]: 541 nM
TGI [46]: 2540 nM
GI50 [47]: 7810 nM
TGI [47]: 20100 nM
GI50 [48]: 175 nM
TGI [48]: 572 nM
GI50 [49]: 1210 nM
TGI [49]: > 14800 nM
GI50 [50]: 2760 nM
TGI [50]: > 50000 nM
GI50 [51]: 154 nM
TGI [51]: 621 nM
GI50 [52]: 248 nM
TGI [52]: 4680 nM
GI50 [53]: 505 nM
GI50 [54]: 106 nM
TGI [54]: 333 nM
GI50 [55]: 130 nM
TGI [55]: 586 nM
GI50 [56]: 614 nM
TGI [56]: 3360 nM
GI50 [57]: 212 nM
TGI [57]: 562 nM
GI50 [58]: 185 nM
TGI [58]: 745 nM
